{"source": "patent US20250302833A1", "about": "“PHARMACEUTICAL COMPOSITION FOR TREATING OR PREVENTING CYSTIC DISEASE” (CHUGAI SEIYAKU KABUSHIKI KAISHA, priority 2022, published 2025)", "key": {"human PiT1": {"target": "T1, human PiT1 (Homo sapiens, UniProt Q8WUM9)", "T1 construct": "expressed in transfected cells; host or cells: CHO cells, transient transfection with Fugene HD", "T1 sequence (Q8WUM9 1-679)": "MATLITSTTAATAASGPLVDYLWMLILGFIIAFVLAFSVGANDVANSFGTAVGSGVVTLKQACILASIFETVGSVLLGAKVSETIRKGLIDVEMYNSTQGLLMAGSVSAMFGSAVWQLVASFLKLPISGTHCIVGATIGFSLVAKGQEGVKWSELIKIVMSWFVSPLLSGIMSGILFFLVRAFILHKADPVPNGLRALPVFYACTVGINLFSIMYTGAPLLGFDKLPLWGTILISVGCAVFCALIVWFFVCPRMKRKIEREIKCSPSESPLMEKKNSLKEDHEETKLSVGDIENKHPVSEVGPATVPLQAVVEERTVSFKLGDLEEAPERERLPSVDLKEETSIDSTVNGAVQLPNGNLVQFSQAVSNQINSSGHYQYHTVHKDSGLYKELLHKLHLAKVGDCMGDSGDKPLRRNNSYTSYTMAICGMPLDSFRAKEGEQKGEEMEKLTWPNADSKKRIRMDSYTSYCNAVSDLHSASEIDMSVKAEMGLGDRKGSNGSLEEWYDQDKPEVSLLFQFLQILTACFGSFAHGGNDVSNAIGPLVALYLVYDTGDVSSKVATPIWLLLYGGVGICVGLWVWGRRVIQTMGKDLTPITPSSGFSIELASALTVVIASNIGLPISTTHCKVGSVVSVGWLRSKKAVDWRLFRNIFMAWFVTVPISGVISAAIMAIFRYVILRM", "assay": "33PO4 uptake inhibition in CHO cells expressing human PiT1", "assay_type": "cell-based", "conditions": "CHO cells transiently expressing human PiT1, pH 6.5", "protocol": "(§1) For transient expression, human NaPi-IIb expression plasmids, human PiT1 expression plasmids, human PiT2 expression plasmids, and Fugene HD Transfection (Promega Corporation) were added to CHO cells using a 96-well plate, and the plate was incubated in a C02 incubator for 16 hours. The medium was replaced with buffer A (145 mM choline chloride, 3 mM KCl, 1 mM CaCl2), 0.5 mM MgCl2, 5 mM glucose, 5 mM MES, (pH 6.5)), and then replaced with buffer B (145 mM NaCl, 3 mM KCl, 1 mM CaCl2, 0.5 mM MgCl2, 5 mM glucose, 5 mM MES (pH 6.5)) to which a test compound was added at the final concentration of 0.01, 0.03, 0.1, 0.3, 1, 3, 10, or 30 μM, buffer A to which DMSO was added, or buffer B to which DMSO was added. After a certain time, a 1/20 amount of buffer A containing ^33PO4 (PerkinElmer Japan G. K.) was added and reacted at room temperature. After washing with ice-cooled buffer A, a liquid scintillator (MicroScint™-20, item number 6013621, PerkinElmer Japan G.K.) was added, and the ^33PO4 uptake amount was measured with the top count (Top Count NXT, PerkinElmer Japan G.K.). The inhibition rate was determined by the following formula. Here, a certain time was set to 10 minutes. […]"}, "human PiT2": {"target": "T2, human PiT2 (Homo sapiens, UniProt Q08357)", "T2 construct": "expressed in transfected cells; host or cells: CHO cells, transient transfection with Fugene HD", "T2 sequence (Q08357 1-652)": "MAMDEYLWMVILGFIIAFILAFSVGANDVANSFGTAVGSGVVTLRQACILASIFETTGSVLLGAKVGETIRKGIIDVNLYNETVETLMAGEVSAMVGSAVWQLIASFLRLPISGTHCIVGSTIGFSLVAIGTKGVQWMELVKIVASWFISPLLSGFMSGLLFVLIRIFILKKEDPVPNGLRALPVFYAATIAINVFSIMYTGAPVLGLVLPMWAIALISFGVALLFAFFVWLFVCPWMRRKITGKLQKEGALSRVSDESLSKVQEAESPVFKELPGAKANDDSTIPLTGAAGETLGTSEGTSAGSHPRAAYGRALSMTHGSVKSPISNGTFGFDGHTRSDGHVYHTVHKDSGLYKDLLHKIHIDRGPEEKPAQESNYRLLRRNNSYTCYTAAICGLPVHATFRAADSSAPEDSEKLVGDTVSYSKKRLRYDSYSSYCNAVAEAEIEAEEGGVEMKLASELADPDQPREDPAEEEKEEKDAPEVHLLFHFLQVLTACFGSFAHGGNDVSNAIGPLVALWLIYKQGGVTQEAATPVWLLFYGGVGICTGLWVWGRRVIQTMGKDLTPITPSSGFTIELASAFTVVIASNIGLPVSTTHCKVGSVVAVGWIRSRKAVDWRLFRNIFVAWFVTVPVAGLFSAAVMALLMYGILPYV", "assay": "33PO4 uptake inhibition in CHO cells expressing human PiT2", "assay_type": "cell-based", "conditions": "CHO cells transiently expressing human PiT2, pH 6.5", "protocol": "as §1"}, "[1]": {"test_system": "pcy mice (naturally occurring PKD model)", "assay": "Suppression of increase in renal volume and decrease in renal function in pcy mice", "assay_type": "in vivo, mouse", "conditions": "compared to tolvaptan", "protocol": "The pcy mice, a naturally occurring PKD model, were used to evaluate the effects of tolvaptan and compound 4 in Test Example 1 on (a) renal volume, (b) blood urea nitrogen (UN) concentration, (c) body weight, and (d) urine volume in pcy mice.\nThe pcy mice (5 weeks of age at the start of this test) were grouped into 3 groups of 13 mice each. Compound 4 or tolvaptan was administered to each of the test compound administration groups. The administration period was 5 weeks. Compound 4 was administered subcutaneously once daily and tolvaptan was administered subcutaneously at a weekly pace. Compound 4 was administered at 33-40 mg/kg per dose and tolvaptan was administered at 25-30 mg/kg per dose. Compound 4 and tolvaptan were administered after dissolved in 50% DMSO/50% glycerol. A group of mice of the parental line was provided as a normal control group (Normal Control) (N=7). The 50% DMSO/50% glycerol was administered to the normal control group and the Vehicle group of pcy mice at 1 mL/kg.\nThe left renal volume (renal volume (mL)) of mice was calculated by the following formula using echography 5 weeks after the start of administration of the test compound, as shown in FIG. 3a.\nAfter that, blood was collected from the abdominal vena cava, plasma was collected, and euthanasia treatment was performed. Blood urea nitrogen (UN) concentration (Plasma UN (mg/L)) was measured using L-type Waco UN (Fujifilm Wako Pure Chemical Corporation), as shown in FIG. 3b.\nIn addition, the body weight (Body weight (g)) of mice was measured every 7 days after the start of administration of the test compound, as shown in FIG. 3c. Furthermore, the volume of urine (Urine volume (mL/day)) was calculated from the specific gravity and measured weight of urine 5 weeks after the start of administration of the test compound, as shown in FIG. 3d."}}}
{"compound": "CCCN([C@H]1CC[C@H](C(=O)[O-])CC1)S(=O)(=O)c1cccc(C(=O)Nc2sc3c(c2C(=O)Nc2ccc(CCCc4ccc(C(=O)[O-])cc4)cc2)CCCC3)c1.[Na+].[Na+]", "note": "[Compound 4, Disodium; 4-[3-[4-[[2-[[3-[(4-carboxylatocyclohexyl)-propylsulfamoyl]benzoyl]ami-no]-4,5,6,7-tetrahydro-1-benzothiophene-3-carbonyl]amino]phenyl]pro-pyl]benzoic acid]", "values": [{"measurement": "IC50", "setting": "human PiT1", "result": "> 30", "unit": "µM"}, {"measurement": "IC50", "setting": "human PiT2", "result": "> 30", "unit": "µM"}, {"measurement": "Body weight (weight loss)", "setting": "[1]; 5 weeks administration", "result": "less weight loss"}, {"measurement": "Urine volume", "setting": "[1]; 5 weeks after start of administration", "result": "no increase in urine volume"}, {"measurement": "Suppression effect on increase in renal volume", "setting": "[1]; 33-40 mg/kg s.c. once daily, 5 weeks, left renal volume by echography", "result": "same degree of suppression effects"}, {"measurement": "Suppression effect on decrease in renal function (blood urea nitrogen)", "setting": "[1]; 33-40 mg/kg s.c. once daily, 5 weeks, plasma UN", "result": "same degree of suppression effects"}]}
